Reference: EP0571928A1, “Acyclic Tocotrienol analogs in the treatment of hypercholesterolemia and hyperlipidemia” (Bristol-Myers Squibb Company, priority 1992, dated 1993)

How the values were obtained:
[1] = tested on: cholesterol biosynthesis in HepG2 cells; assay: HepG2 cell culture model - 14C-acetate incorporation assay (cholesterol synthesis); type: cell-based; conditions: 3-4 hours incubation, 2-14C-acetate incorporation into digitonin-precipitable sterols, vs. vehicle controls
Procedure: HepG2 Cell Culture Model - 14C-Acetate Incorporation Assay
After 16 hours in LDS containing media, test compounds were added in dimethylsulfoxide vehicle (0.5% v/v final conc.) for an incubation period of 3-4 hours. Cholesterol synthesis was then directly determined by 2-14C-acetate (1.8 mCi/mmol, 0.5 µCi/ml) incorporation for 30 to 60 minutes (previously shown to be time-linear) into total digitonin-precipitable sterols. […] Percent inhibition was calculated from the average of duplicates vs. triplicate vehicle controls conducted simultaneously.

HMG-CoA reductase = assay: HepG2 cell culture model - HMG-CoA reductase suppression assay; type: cell-based; conditions: HepG2 cells, 4 hours of incubation at 37°, decrease in specific activity vs. vehicle controls
Procedure: HepG2 Cell Culture Model - HMG-CoA Reductase Suppression Assay
HMG-CoA reductase suppression in HepG2 cells was conducted by growing cells in RPMT-1640 plus 10% FBS on 100 mm plates, and when cells reached approximately 75% confluency, inducing with LDS (as described above) for 16 hours prior to assays. Compounds were added using dimethylsulfoxide vehicle (0.5% v/v, final) and after 4 hours of incubation at 37°, cells were harvested by scraping. Cell pellets were rinsed and lysed by sonication in 1.7 ml cold 50 mM imidazole-HCl, pH 7.2, 50 mM NaCl, 10 mM EDTA, 10 mM EGTA, 5mM DTT, and 40 µM leupeptin). Lysates were centrifuged at 150 x g and the supernatant was centrifuged at 100,000 x g in a Beckman airfuge to isolate the post-nuclear total membrane fraction. The membranes were resuspended in 50 mM imidazole-HCl, pH 7.2, 250 mM NaCl, 5 mM DTT, and 20 µM leupeptin and used for the assay of HMG-CoA reductase activity by the radiochemical procedure as described previously by Parker et al., J. Biol. Chem., 264: 4877-4887, (1989). Values were normalized for protein content by the Lowry method as cited previously (ibid). HMG-CoA reductase percent suppression was calculated as the decrease in specific activity of HMG-CoA reductase for treated cells vs. controls receiving vehicle. Averages of duplicate cell determinations assayed in duplicate were taken.

[2] = tested on: Normocholesterolemic Chickens; assay: In vivo evaluation in normocholesterolemic chickens - serum cholesterol pools; conditions: 6-week old male chickens, 50 ppm in diet for four weeks; for Total Cholesterol: serum
Procedure: (§1) In Vivo Biological Evaluation in Normocholesterolemic Chickens
(§2) Newborn male chicks (10 for each group) were raised on a standard corn-soybean based control diet for two weeks and then switched to either control or experimental diets for four weeks. Drug treatment consisted of the addition of test compounds to the corn-soybean-based diet at a concentration of 50 ppm. At the end of the feeding period, all the birds were fasted (36 hours) and refed (48 hours) to induce cholesterolgenic enzymes prior to sacrifice. The specific activity of HMGR, total serum cholesterol levels, LDL cholesterol and HDL cholesterol pools were determined (Table 6).

HMGR = assay: In vivo evaluation in normocholesterolemic chickens - specific activity of HMGR; conditions: 6-week old male chickens, 50 ppm in diet for four weeks
Procedure: as §1, §2

Compound | inhibition at 10 µM ([1]; Homo sapiens, read-out: Sterol Biosynthesis % Inhibition 10µM) | HMG-CoA Reductase Suppression % 10µM (HMG-CoA reductase) | HDL Cholesterol [2] | LDL Cholesterol [2] | Total Cholesterol [2] | HMGR (HMGR) | Sterol Biosynthesis % Inhibition 10µM [1]
CC(C)=CCC/C(C)=C/CC/C(C)=C/CCCOc1ccc(NS(C)(=O)=O)cc1 [Example 25, N-[4-[(5,9,13-Trimethyl-4(E), 8(E),12-tetradecatrienyl)oxy]phenyl]methanesulfonamide] | 77% | 9% | 91 % of Control | 45 % of Control | 72 % of Control | 86 % of Control | –
γ-tocotrienol [reference compound] | – | 63% | 91 % of Control | 44 % of Control | 75 % of Control | 82 % of Control | 69%
